Experimental data taken from paper PMC8445441, “Elucidating the mechanism by which synthetic helper peptides sensitize Pseudomonas aeruginosa to multiple antibiotics” (PLoS Pathogens, 2021).
Like-named read-outs stand apart in the source and are kept apart here.

Legend:
P. aeruginosa AUMC-Pa-1 = conditions: strain AUMC-Pa-1; antibiotic + D-11 (MICb/MICbc 128/4)
Procedure, shortened: (§1)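 Growth inhibition was scored by eye after an 18 h, 37 °C incubation of drug-bacteria mixtures in Mueller-Hinton broth. Inoculum suspension held approximately 1 × 10^6 CFU/mL before 1:1 mixing.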

P. aeruginosa AUMC-Pa-2 = conditions: strain AUMC-Pa-2; antibiotic + D-11 (MICb/MICbc 64/4)
Procedure, shortened: as §1

P. aeruginosa AUMC-Pa-3 = experiment: microbe, parasite or virus in culture; conditions: for MIC: Pseudomonas aeruginosa, AUMCPA3, 18 h, read-out: MICa: MIC of the antibiotic; for FICI / MICac: MIC of the antibiotic in the combination: strain AUMC-Pa-3; for FICI: antibiotic + D-11 (MICb/MICbc 128/4); for MICac: MIC of the antibiotic in the combination: with D-11 at MICbc 4, unit not given
Procedure, shortened: as §1

P. aeruginosa AUMC-Pa-6 = experiment: microbe, parasite or virus in culture; conditions: strain AUMC-Pa-6; for FICI: antibiotic + D-11 (MICb/MICbc 64/4); for MICa: MIC of the antibiotic: antibiotic alone; for MICa: MIC of the antibiotic / MICac: MIC of the antibiotic in the combination: unit not given; for MICac: MIC of the antibiotic in the combination: with D-11 at MICbc 4
Procedure, shortened: as §1

P. aeruginosa PAO1 = experiment: microbe, parasite or virus in culture; conditions: PAO1; for MIC: Pseudomonas aeruginosa, PAO1, 18 h, read-out: MICa: the MIC of antibiotics, S3 Table, antibiotic alone; for FICI / MICac: the MIC for the antibiotic in the combination: S3 Table
Procedure, shortened: as §1

P. aeruginosa AUMC-Pa-4 = experiment: microbe, parasite or virus in culture; conditions: for FICI: antibiotic + D-11 (MICb/MICbc 128/4); for MICac: MIC of the antibiotic in the combination: with D-11 at MICbc 4
Procedure, shortened: as §1

P. aeruginosa AUMC-Pa-5 = experiment: microbe, parasite or virus in culture; conditions: strain AUMC-Pa-5; for FICI: antibiotic + D-11 (MICb/MICbc 64/4); for MICa: MIC of the antibiotic: antibiotic alone; for MICa: MIC of the antibiotic / MICac: MIC of the antibiotic in the combination: unit not given; for MICac: MIC of the antibiotic in the combination: with D-11 at MICbc 4
Procedure, shortened: as §1

[1] = test system: clinical P. aeruginosa isolates; experiment: microbe, parasite or virus in culture; conditions: Pseudomonas aeruginosa, 18 h, antibiotic alone
Procedure, shortened: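 Broth microdilution per CLSI in MHB, two-fold drug dilutions mixed with an equal volume of bacteria at about 1 × 10^6 CFU/mL. After 18 h at 37 °C, MIC taken as the lowest concentration with no visible growth; run in triplicate.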

P. aeruginosa ATCC27853 = experiment: microbe, parasite or virus in culture; design: MICa: MIC of the antibiotic / MICac: MIC of the antibiotic in the combination: unit not given beside the values; conditions: for MIC: Pseudomonas aeruginosa, ATCC27853, 18 h, read-out: MICa: MIC of the antibiotic; for FICI / MICac: MIC of the antibiotic in the combination: strain ATCC27853; for FICI: antibiotic + D-11 (MICb/MICbc 32/4); for MICac: MIC of the antibiotic in the combination: with D-11 at MICbc 4, unit not given
Procedure, shortened: as §1

P. aeruginosa NR-31041 = experiment: microbe, parasite or virus in culture; design: MICa: MIC of the antibiotic / MICac: MIC of the antibiotic in the combination: unit not given beside the values; conditions: for MIC: Pseudomonas aeruginosa, NR31041, 18 h, read-out: MICa: MIC of the antibiotic; for FICI / MICac: MIC of the antibiotic in the combination: strain NR-31041; for FICI: antibiotic + D-11 (MICb/MICbc 64/4); for MICac: MIC of the antibiotic in the combination: with D-11 at MICbc 4, unit not given
Procedure, shortened: as §1

P. aeruginosa NR-31040 = experiment: microbe, parasite or virus in culture; design: MICa: MIC of the antibiotic / MICac: MIC of the antibiotic in the combination: unit not given beside the values; conditions: for FICI: antibiotic + D-11 (MICb/MICbc 128/4); for MICac: MIC of the antibiotic in the combination: with D-11 at MICbc 4
Procedure, shortened: as §1

P. aeruginosa PA14 = experiment: microbe, parasite or virus in culture; design: MICa: MIC of the antibiotic / MICac: MIC of the antibiotic in the combination: unit not given beside the values; conditions: for MIC: Pseudomonas aeruginosa, PA14, 18 h, read-out: MICa: MIC of the antibiotic; for FICI / MICac: MIC of the antibiotic in the combination: strain PA14; for FICI: antibiotic + D-11 (MICb/MICbc 128/4); for MICac: MIC of the antibiotic in the combination: with D-11 at MICbc 4, unit not given
Procedure, shortened: as §1

P. aeruginosa PAK = experiment: microbe, parasite or virus in culture; design: MICa: MIC of the antibiotic / MICac: MIC of the antibiotic in the combination: unit not given beside the values; conditions: for MIC: Pseudomonas aeruginosa, 18 h, read-out: MICa: MIC of the antibiotic; for FICI / MICac: MIC of the antibiotic in the combination: strain PAK; for FICI: antibiotic + D-11 (MICb/MICbc 64/4); for MICac: MIC of the antibiotic in the combination: with D-11 at MICbc 4, unit not given
Procedure, shortened: as §1

P. aeruginosa HM-214 = conditions: strain HM-214; antibiotic + D-11 (MICb/MICbc 128/4)
Procedure, shortened: as §1

[2] = strain AUMC-Pa-4, unit not given
[3] = read-out: Antibiotic sensibility (MIC) of clinical P. aeruginosa isolate AUMC-Pa-1, strain AUMC-Pa-1
[4] = read-out: Antibiotic sensibility (MIC) of clinical P. aeruginosa isolate AUMC-Pa-2, strain AUMC-Pa-2
[5] = read-out: Antibiotic sensibility (MIC) of clinical P. aeruginosa isolate AUMC-Pa-3, strain AUMC-Pa-3
[6] = read-out: Antibiotic sensibility (MIC) of clinical P. aeruginosa isolate AUMC-Pa-4, strain AUMC-Pa-4
[7] = read-out: Antibiotic sensibility (MIC) of clinical P. aeruginosa isolate AUMC-Pa-5, strain AUMC-Pa-5
[8] = read-out: Antibiotic sensibility (MIC) of clinical P. aeruginosa isolate AUMC-Pa-6, strain AUMC-Pa-6
[9] = read-out: Antibiotic sensibility (MIC) of clinical P. aeruginosa isolate HM-214, strain HM-214
[10] = read-out: Antibiotic sensibility (MIC) of clinical P. aeruginosa isolate NR-31040, strain NR-31040
[11] = read-out: Antibiotic sensibility (MIC) of clinical P. aeruginosa isolate NR-31041, strain NR-31041
[12] = strain NR-31040, unit not given

## CO[C@H]1/C=C/O[C@@]2(C)Oc3c(C)c(O)c4c(O)c(c(/C=N/N5CCN(C6CCCC6)CC5)c(O)c4c3C2=O)NC(=O)/C(C)=C\C=C\[C@H](C)[C@H](O)[C@@H](C)[C@@H](O)[C@@H](C)[C@H](OC(C)=O)[C@@H]1C [Rifapentine]
P. aeruginosa AUMC-Pa-1
  FICI: 0.035
P. aeruginosa AUMC-Pa-2
  FICI: 0.066
P. aeruginosa AUMC-Pa-3
  MIC: 8 µM
  FICI: 0.035
  MICac: MIC of the antibiotic in the combination: 0.031
P. aeruginosa AUMC-Pa-6
  FICI: 0.188
  MICa: MIC of the antibiotic: 16
  MICac: MIC of the antibiotic in the combination: 2
P. aeruginosa PAO1
  MIC: 32 µM
P. aeruginosa PAO1; antibiotic + 2 μM D-11
  FICI: 0.066
P. aeruginosa PAO1; antibiotic + 4 μM D-11
  FICI: 0.126
P. aeruginosa PAO1; with 2 μM D-11
  MICac: the MIC for the antibiotic in the combination: 0.125 µM
P. aeruginosa PAO1; with 4 μM D-11
  MICac: the MIC for the antibiotic in the combination: 0.03125 µM
P. aeruginosa AUMC-Pa-4; Pseudomonas aeruginosa, AUMCPA4, 18 h, read-out: MICa: MIC of the antibiotic
  MIC: 16 µM
P. aeruginosa AUMC-Pa-4; strain AUMC-Pa-4
  FICI: 0.063
P. aeruginosa AUMC-Pa-4; [2]
  MICac: MIC of the antibiotic in the combination: 0.5
P. aeruginosa AUMC-Pa-5
  FICI: 0.563
  MICa: MIC of the antibiotic: 32
  MICac: MIC of the antibiotic in the combination: 16
[1]; [3]
  MIC: 16 µM
[1]; [4]
  MIC: 8 µM
[1]; [5]
  MIC: 8 µM
[1]; [6]
  MIC: 16 µM
[1]; [7]
  MIC: 32 µM
[1]; [8]
  MIC: 16 µM
[1]; [9]
  MIC: 8 µM
[1]; [10]
  MIC: 8 µM
[1]; [11]
  MIC: 16 µM
P. aeruginosa ATCC27853
  MIC: 32 µM
  FICI: 0.133
  MICac: MIC of the antibiotic in the combination: 0.031
P. aeruginosa NR-31041
  MIC: 16 µM
  FICI: 0.066
  MICac: MIC of the antibiotic in the combination: 0.063
P. aeruginosa NR-31040; Pseudomonas aeruginosa, NR31040, 18 h, read-out: MICa: MIC of the antibiotic
  MIC: 8 µM
P. aeruginosa NR-31040; strain NR-31040
  FICI: 0.094
P. aeruginosa NR-31040; [12]
  MICac: MIC of the antibiotic in the combination: 0.5
P. aeruginosa PA14
  MIC: > 128 µM
  FICI: 0.063
  MICac: MIC of the antibiotic in the combination: 8
P. aeruginosa PAK
  MIC: 16 µM
  FICI: 0.070
  MICac: MIC of the antibiotic in the combination: 0.125
P. aeruginosa HM-214
  FICI: 0.063

## CO[C@H]1/C=C/O[C@@]2(C)Oc3c(C)c(O)c4c(O)c(c5c(nc6cc(C)ccn65)c4c3C2=O)NC(=O)/C(C)=C\C=C\[C@H](C)[C@H](O)[C@@H](C)[C@@H](O)[C@@H](C)[C@H](OC(C)=O)[C@@H]1C [Rifaximin]
P. aeruginosa AUMC-Pa-1
  FICI: 0.047
P. aeruginosa AUMC-Pa-2
  FICI: 0.094
P. aeruginosa AUMC-Pa-3
  MIC: 8 µM
  FICI: 0.063
  MICac: MIC of the antibiotic in the combination: 0.25
P. aeruginosa AUMC-Pa-6
  FICI: 0.313
  MICa: MIC of the antibiotic: 16
  MICac: MIC of the antibiotic in the combination: 4
P. aeruginosa PAO1
  MIC: 16 µM
P. aeruginosa PAO1; antibiotic + 2 μM D-11
  FICI: 0.066
P. aeruginosa PAO1; antibiotic + 4 μM D-11
  FICI: 0.127
P. aeruginosa PAO1; with 2 μM D-11
  MICac: the MIC for the antibiotic in the combination: 0.0625 µM
P. aeruginosa PAO1; with 4 μM D-11
  MICac: the MIC for the antibiotic in the combination: 0.03125 µM
P. aeruginosa AUMC-Pa-4; strain AUMC-Pa-4
  FICI: 0.281
P. aeruginosa AUMC-Pa-4; strain AUMC-Pa-4, antibiotic alone, unit not given
  MICa: MIC of the antibiotic: 8
P. aeruginosa AUMC-Pa-4; [2]
  MICac: MIC of the antibiotic in the combination: 2
P. aeruginosa AUMC-Pa-5
  FICI: 0.313
  MICa: MIC of the antibiotic: 32
  MICac: MIC of the antibiotic in the combination: 8
[1]; [3]
  MIC: 32 µM
[1]; [4]
  MIC: 8 µM
[1]; [5]
  MIC: 8 µM
[1]; [6]
  MIC: 8 µM
[1]; [7]
  MIC: 32 µM
[1]; [8]
  MIC: 16 µM
[1]; [9]
  MIC: 8 µM
[1]; [10]
  MIC: 16 µM
[1]; [11]
  MIC: 16 µM
P. aeruginosa ATCC27853
  MIC: 16 µM
  FICI: 0.156
  MICac: MIC of the antibiotic in the combination: 0.5
P. aeruginosa NR-31041
  MIC: 16 µM
  FICI: 0.078
  MICac: MIC of the antibiotic in the combination: 0.25
P. aeruginosa NR-31040; strain NR-31040
  FICI: 0.094
P. aeruginosa NR-31040; strain NR-31040, antibiotic alone, unit not given
  MICa: MIC of the antibiotic: 16
P. aeruginosa NR-31040; [12]
  MICac: MIC of the antibiotic in the combination: 1
P. aeruginosa PA14
  MIC: > 128 µM
  FICI: 0.094
  MICac: MIC of the antibiotic in the combination: 16
P. aeruginosa PAK
  MIC: 16 µM
  FICI: 0.094
  MICac: MIC of the antibiotic in the combination: 0.5
P. aeruginosa HM-214
  FICI: 0.063
